Laboratory results reported in the NIST ThermoML archive (doi:10.1021/je900311v).
Numbers after ± are expanded uncertainties.

What was measured:
[1] = 298.15 K; 101.33 kPa; Liquid
[2] = excess molar enthalpy (molar enthalpy of mixing); xn = mol fraction of the nth substance listed; conditions: 298.15 K, 101 kPa, Liquid, Calvet calorimetry

CCCCCCC(C)=O [2-octanone]
Conditions | mass density [kg/m3]
[1] | 814.28 ± 0.55

CCCCCCC(C)=O [2-octanone] + CCCCCCCCCCCC
[2]
Conditions | excess molar enthalpy [kcal/mol]
x1 = 0.035 | 0.0456 ± 0.000717
x1 = 0.0677 | 0.0821 ± 0.00112
x1 = 0.0982 | 0.111 ± 0.00148
x1 = 0.1267 | 0.136 ± 0.00177
x1 = 0.1564 | 0.159 ± 0.00206
x1 = 0.1841 | 0.177 ± 0.00227
x1 = 0.2101 | 0.193 ± 0.00239
x1 = 0.2345 | 0.205 ± 0.00263
x1 = 0.2613 | 0.217 ± 0.00287
x1 = 0.2862 | 0.226 ± 0.00287
x1 = 0.3096 | 0.234 ± 0.00287
x1 = 0.3314 | 0.24 ± 0.00311
x1 = 0.3519 | 0.245 ± 0.00311
x1 = 0.3712 | 0.248 ± 0.00311
x1 = 0.3931 | 0.252 ± 0.00311
x1 = 0.4135 | 0.254 ± 0.00311
x1 = 0.4325 | 0.255 ± 0.00311
x1 = 0.4499 | 0.255 ± 0.00311
x1 = 0.4504 | 0.256 ± 0.00311
x1 = 0.4596 | 0.256 ± 0.00311
x1 = 0.4698 | 0.256 ± 0.00311
x1 = 0.4804 | 0.256 ± 0.00311
x1 = 0.4915 | 0.256 ± 0.00311
x1 = 0.5031 | 0.255 ± 0.00311
x1 = 0.5138 | 0.255 ± 0.00311
x1 = 0.525 | 0.253 ± 0.00311
x1 = 0.5366 | 0.252 ± 0.00311
x1 = 0.5488 | 0.251 ± 0.00311
x1 = 0.5615 | 0.249 ± 0.00311
x1 = 0.5749 | 0.246 ± 0.00311
x1 = 0.5866 | 0.244 ± 0.00311
x1 = 0.5986 | 0.241 ± 0.00311
x1 = 0.6133 | 0.238 ± 0.00311
x1 = 0.6244 | 0.235 ± 0.00311
x1 = 0.6381 | 0.231 ± 0.00287
x1 = 0.6525 | 0.227 ± 0.00287
x1 = 0.6658 | 0.222 ± 0.00287
x1 = 0.6795 | 0.217 ± 0.00287
x1 = 0.6938 | 0.212 ± 0.00263
x1 = 0.7072 | 0.206 ± 0.00263
x1 = 0.721 | 0.2 ± 0.00263
x1 = 0.7355 | 0.193 ± 0.00239
x1 = 0.7505 | 0.186 ± 0.00237
x1 = 0.7661 | 0.177 ± 0.00227
x1 = 0.7808 | 0.17 ± 0.00217
x1 = 0.7961 | 0.161 ± 0.00208
x1 = 0.812 | 0.151 ± 0.00196
x1 = 0.8265 | 0.142 ± 0.00186
x1 = 0.8414 | 0.133 ± 0.00172
x1 = 0.857 | 0.122 ± 0.0016
x1 = 0.873 | 0.11 ± 0.00146
x1 = 0.8877 | 0.0994 ± 0.00134
x1 = 0.9032 | 0.0876 ± 0.0012
x1 = 0.9191 | 0.0745 ± 0.00103
x1 = 0.9356 | 0.0608 ± 0.00086
x1 = 0.9509 | 0.047 ± 0.000717
x1 = 0.9667 | 0.0326 ± 0.00055
x1 = 0.9831 | 0.0167 ± 0.000382

CCCCCCC(C)=O [2-octanone] + CCCCCCCCCCCCCC
[2]
Conditions | excess molar enthalpy [kcal/mol]
x1 = 0.0383 | 0.0506 ± 0.000765
x1 = 0.0737 | 0.0908 ± 0.00124
x1 = 0.1066 | 0.123 ± 0.00163
x1 = 0.1373 | 0.15 ± 0.00194
x1 = 0.1659 | 0.173 ± 0.00222
x1 = 0.1927 | 0.191 ± 0.00239
x1 = 0.2226 | 0.209 ± 0.00263
x1 = 0.2504 | 0.223 ± 0.00287
x1 = 0.2763 | 0.235 ± 0.00311
x1 = 0.3005 | 0.244 ± 0.00311
x1 = 0.3231 | 0.252 ± 0.00311
x1 = 0.3443 | 0.258 ± 0.00335
x1 = 0.3678 | 0.263 ± 0.00335
x1 = 0.3898 | 0.267 ± 0.00335
x1 = 0.4102 | 0.27 ± 0.00335
x1 = 0.4151 | 0.273 ± 0.00335
x1 = 0.4243 | 0.274 ± 0.00359
x1 = 0.4339 | 0.275 ± 0.00359
x1 = 0.444 | 0.275 ± 0.00359
x1 = 0.4546 | 0.276 ± 0.00359
x1 = 0.4657 | 0.276 ± 0.00359
x1 = 0.4756 | 0.276 ± 0.00359
x1 = 0.486 | 0.276 ± 0.00359
x1 = 0.4968 | 0.275 ± 0.00359
x1 = 0.5082 | 0.275 ± 0.00359
x1 = 0.52 | 0.274 ± 0.00335
x1 = 0.5304 | 0.272 ± 0.00335
x1 = 0.5412 | 0.271 ± 0.00335
x1 = 0.5525 | 0.27 ± 0.00335
x1 = 0.5643 | 0.268 ± 0.00335
x1 = 0.5765 | 0.265 ± 0.00335
x1 = 0.5893 | 0.263 ± 0.00335
x1 = 0.6004 | 0.26 ± 0.00335
x1 = 0.612 | 0.257 ± 0.00335
x1 = 0.624 | 0.254 ± 0.00311
x1 = 0.6364 | 0.25 ± 0.00311
x1 = 0.6494 | 0.246 ± 0.00311
x1 = 0.6629 | 0.241 ± 0.00311
x1 = 0.6753 | 0.237 ± 0.00311
x1 = 0.6882 | 0.232 ± 0.00287
x1 = 0.7016 | 0.226 ± 0.00287
x1 = 0.7155 | 0.22 ± 0.00287
x1 = 0.73 | 0.213 ± 0.00263
x1 = 0.7451 | 0.205 ± 0.00263
x1 = 0.7709 | 0.191 ± 0.00239
x1 = 0.7844 | 0.183 ± 0.00234
x1 = 0.7985 | 0.175 ± 0.00225
x1 = 0.8131 | 0.165 ± 0.00213
x1 = 0.8282 | 0.155 ± 0.00201
x1 = 0.8413 | 0.146 ± 0.00189
x1 = 0.8549 | 0.136 ± 0.00177
x1 = 0.8689 | 0.125 ± 0.00165
x1 = 0.8834 | 0.113 ± 0.00151
x1 = 0.8983 | 0.101 ± 0.00136
x1 = 0.9138 | 0.0873 ± 0.0012
x1 = 0.9271 | 0.0752 ± 0.00105
x1 = 0.9409 | 0.0622 ± 0.000884
x1 = 0.955 | 0.0482 ± 0.000741
x1 = 0.9695 | 0.0332 ± 0.000574
x1 = 0.9845 | 0.017 ± 0.000406

CCCCCCC(C)=O [2-octanone] + CCCCCCCCCCCCCCCC
[2]
Conditions | excess molar enthalpy [kcal/mol]
x1 = 0.0446 | 0.0598 ± 0.000884
x1 = 0.0854 | 0.107 ± 0.00143
x1 = 0.1228 | 0.144 ± 0.00189
x1 = 0.1573 | 0.175 ± 0.00225
x1 = 0.1926 | 0.202 ± 0.00263
x1 = 0.2251 | 0.223 ± 0.00287
x1 = 0.255 | 0.241 ± 0.00311
x1 = 0.2827 | 0.255 ± 0.00311
x1 = 0.3084 | 0.266 ± 0.00335
x1 = 0.3324 | 0.274 ± 0.00359
x1 = 0.3585 | 0.282 ± 0.00359
x1 = 0.3826 | 0.288 ± 0.00359
x1 = 0.405 | 0.292 ± 0.00359
x1 = 0.4258 | 0.295 ± 0.00382
x1 = 0.448 | 0.298 ± 0.00382
x1 = 0.4685 | 0.299 ± 0.00382
x1 = 0.4876 | 0.299 ± 0.00382
x1 = 0.4933 | 0.3 ± 0.00382
x1 = 0.5044 | 0.3 ± 0.00382
x1 = 0.5161 | 0.299 ± 0.00382
x1 = 0.5282 | 0.299 ± 0.00382
x1 = 0.541 | 0.298 ± 0.00382
x1 = 0.5519 | 0.297 ± 0.00382
x1 = 0.5633 | 0.295 ± 0.00382
x1 = 0.5751 | 0.294 ± 0.00359
x1 = 0.5874 | 0.291 ± 0.00359
x1 = 0.6003 | 0.289 ± 0.00359
x1 = 0.6138 | 0.286 ± 0.00359
x1 = 0.6257 | 0.283 ± 0.00359
x1 = 0.6508 | 0.275 ± 0.00359
x1 = 0.6642 | 0.27 ± 0.00335
x1 = 0.6781 | 0.265 ± 0.00335
x1 = 0.6926 | 0.259 ± 0.00335
x1 = 0.7048 | 0.254 ± 0.00311
x1 = 0.7174 | 0.248 ± 0.00311
x1 = 0.737 | 0.241 ± 0.00311
x1 = 0.7443 | 0.234 ± 0.00287
x1 = 0.7583 | 0.226 ± 0.00287
x1 = 0.7732 | 0.217 ± 0.00287
x1 = 0.7861 | 0.209 ± 0.00263
x1 = 0.7993 | 0.2 ± 0.00263
x1 = 0.8131 | 0.19 ± 0.00239
x1 = 0.8273 | 0.18 ± 0.00232
x1 = 0.84 | 0.17 ± 0.0022
x1 = 0.8531 | 0.159 ± 0.00206
x1 = 0.8666 | 0.148 ± 0.00191
x1 = 0.8805 | 0.135 ± 0.00177
x1 = 0.8949 | 0.122 ± 0.0016
x1 = 0.9075 | 0.109 ± 0.00146
x1 = 0.9204 | 0.0961 ± 0.00129
x1 = 0.9337 | 0.0819 ± 0.00112
x1 = 0.9473 | 0.0667 ± 0.000956
x1 = 0.9614 | 0.0499 ± 0.000765
x1 = 0.9739 | 0.0346 ± 0.000598
x1 = 0.9868 | 0.0177 ± 0.00043
